{"source": "patent US20250034164A1", "about": "“NOVEL COMPOUND AND COMPOSITION FOR PREVENTING OR TREATING NEUROINFLAMMATORY BRAIN DISEASES COMPRISING SAME AS ACTIVE INGREDIENT” (KOREA INSTITUTE OF OCEAN SCIENCE & TECHNOLOGY, priority 2021, published 2025)", "key": {"[1]": {"test_system": "nitric oxide (NO) produced in mouse BV-2 microglia cells stimulated with LPS", "assay": "NO production inhibition in LPS-stimulated BV-2 microglia cells (Griess reagent)", "type": "cell-based", "settings": "LPS 200 ng/ml; for IC50: mouse BV-2 microglia cells, 24 h, read-out: NO inhibitory activity (IC50 value)", "experimental": "(§1) BV-2 microglia cells were cultured in a humidified 5% CO2 incubator at 37° C. using a Dulbecco's modified Eagle medium supplemented with 5% fetal bovine serum and 1% penicillin/streptomycin at 100 units/mL.\nIn all experiments, the number of cells was 2.5×10^5 cell/ml, the cells were first treated with each of Compounds of Examples 1 to 25 by concentration (2.5 to 200 μg/ml), and LPS was diluted in medium and used at a concentration of 200 ng/ml. A cytotoxicity test was performed using MTT assay, and the MTT assay was performed by performing NO assay and injecting 30 μl of MTT at a concentration of 0.5 mg/ml into the cells in a microplate. After reacting for 2 hours in the incubator, formazan crystals were dissolved in 100 μl of DMSO, and the absorbance was measured using a Vmax microplate reader (Tencan Co., Switzerland) with a wavelength of 540 nm. In order to quantitatively measure the production of nitric oxide (NO), mouse BV-2 microglia cells were prepared in a microplate (96 well), and added with LPS (200 ng/ml) and Compounds by concentration (2.5 to 200 μg/ml). The cells reacted in an incubator for 24 h, and 50 μl of the supernatant reacted with a Griess reagent (a mixed solution of 1% sulfanilamide, 0.1% N-(1-naphthyl)-ethylenediamine dihydrochloride, and 2.5% H3PO4), and then the absorbance was measured using a Vmax 96-well microplate spectrophotometer with a wavelength of 550 nm.\nIn order to analyze the anti-inflammatory efficacy of Compound of Example 1, the concentration inhibitory effect of nitric oxide (NO) produced in mouse BV-2 microglia cells stimulated with LPS (200 ng/ml), a neuroinflammatory factor, was confirmed.\nThe neuroinflammation inhibitory effects of Compounds of Examples 2 to 25 were confirmed.\nIn order to analyze the anti-inflammatory efficacy of Compound 26 of Chemical Formula 2, the concentration inhibitory effect of nitric oxide (NO) produced in mouse BV-2 microglia cells stimulated with LPS (200 ng/ml), a neuroinflammatory factor, was confirmed. Compound 26 of Chemical Formula 2 was purchased from Santa Cruz biotechnology (CAS 79127-35-8) and the experiment was performed. As a result of treating Compound of Chemical Formula 2 at […], it was confirmed that the amount of nitric oxide (NO) was reduced, as shown in FIG. 37A."}, "[2]": {"test_system": "inducible nitric oxide synthase (iNOS)", "assay": "iNOS protein and gene expression in LPS-treated BV-2 cells (Western blot, RT-PCR)", "type": "cell-based, mouse", "settings": "LPS 200 ng/ml, 2 to 80 μg/ml, protein 18 hours, gene 6 hours", "experimental": "as §1\n(§2) After culturing for 18 hours, the proteins were identified, and the expression patterns of iNOS and COX-2 proteins were confirmed by performing Western blot using polyclonal antibodies to iNOS and COX-2. For 6 hours after culturing the BV-2 cells by setting the same conditions, the cell supernatant was removed, RNA was identified from the cells, and iNOS and COX-2 genes were analyzed by RT-PCR. As a result, as shown in FIGS. 30(c), 35(c), and 36(c), it could be confirmed that natural product Compound 1 and derivative Compounds 4 and 6 decreased the expression levels of iNOS and COX-2 proteins and genes in a concentration-dependent manner."}, "[3]": {"test_system": "cyclooxygenase type 2 (COX-2)", "assay": "COX-2 protein and gene expression in LPS-treated BV-2 cells (Western blot, RT-PCR)", "type": "cell-based, mouse", "settings": "LPS 200 ng/ml, 2 to 80 μg/ml, protein 18 hours, gene 6 hours", "experimental": "as §1, §2"}, "[4]": {"test_system": "TNF-α", "assay": "TNF-α gene expression in LPS-stimulated BV-2 microglia cells (RT-PCR)", "type": "cell-based, mouse", "settings": "BV-2 cells, pretreated 1 hour at 2 to 80 μg/ml, LPS 200 ng/ml, 6 hours", "experimental": "as §1\n(§3) Then, the cells were stimulated with LPS (200 ng/ml). After 6 hours, the cell supernatant was removed, RNA was identified from the cells, and TNF-α, IL1-β, and IL-6 genes were analyzed by RT-PCR. As a result, as shown in FIGS. 30(d), 35(d), and 36(d), it could be confirmed that natural product compound 1 and derivative compounds 4 and 6 decreased the expression levels of TNF-α, IL1-β, and IL-6 genes in a concentration-dependent manner."}, "[5]": {"test_system": "IL1-β", "assay": "IL1-β gene expression in LPS-stimulated BV-2 microglia cells (RT-PCR)", "type": "cell-based, mouse", "settings": "BV-2 cells, pretreated 1 hour at 2 to 80 μg/ml, LPS 200 ng/ml, 6 hours", "experimental": "as §1, §3"}, "[6]": {"test_system": "IL-6", "assay": "IL-6 gene expression in LPS-stimulated BV-2 microglia cells (RT-PCR)", "type": "cell-based, mouse", "settings": "BV-2 cells, pretreated 1 hour at 2 to 80 μg/ml, LPS 200 ng/ml, 6 hours", "experimental": "as §1, §3"}}}
{"molecule": "O=C1O[C@@H]2OC(CO)=C[C@H]3[C@@H]2C=C[C@@H]13", "note": "[Compound 1, (1S,4aS,5R,7aS)-3-(hydroxymethyl)-1,4a,5,7a-tetrahydro-1,5-(epoxymethano)cyclopenta[c]pyran-8-one]", "values": [{"measurement": "amount of nitric oxide (NO)", "setting": "[1]; BV-2 cells, treated at 20 to 60 μM (FIG. 30A)", "result": "reduced"}, {"measurement": "IC50", "setting": "[1]", "result": 46.6, "unit": "µM"}, {"measurement": "expression levels of iNOS proteins and genes", "setting": "[2]", "result": "decreased"}, {"measurement": "expression levels of COX-2 proteins and genes", "setting": "[3]", "result": "decreased"}, {"measurement": "expression levels of TNF-α gene", "setting": "[4]", "result": "decreased"}, {"measurement": "expression levels of IL1-β gene", "setting": "[5]", "result": "decreased"}, {"measurement": "expression levels of IL-6 gene", "setting": "[6]", "result": "decreased"}]}
{"molecule": "O=C(OCC1=C[C@H]2[C@@H]3C=C[C@H]2C(=O)O[C@@H]3O1)c1ccc(Br)cc1", "note": "[Compound 4, ((1S,4aS,5R,7aS)-8-oxo-1,4a,5,7a-tetrahydro-1,5-(epoxymethano)cyclopenta[c]pyran-3-yl)methyl 4-bromobenzoate]", "values": [{"measurement": "IC50", "setting": "[1]", "result": 13.3, "unit": "µM"}, {"measurement": "expression levels of iNOS proteins and genes", "setting": "[2]", "result": "decreased"}, {"measurement": "expression levels of COX-2 proteins and genes", "setting": "[3]", "result": "decreased"}, {"measurement": "expression levels of TNF-α gene", "setting": "[4]", "result": "decreased"}, {"measurement": "expression levels of IL1-β gene", "setting": "[5]", "result": "decreased"}, {"measurement": "expression levels of IL-6 gene", "setting": "[6]", "result": "decreased"}]}
{"molecule": "O=CC1=C[C@H]2[C@@H]3C=C[C@H]2C(=O)O[C@@H]3O1", "note": "[Compound 6, (1S,4aS,5R,7aS)-8-oxo-1,4a,5,7a-tetrahydro-1,5-(epoxymethano)cyclopenta[c]pyran-3-carbaldehyde]", "values": [{"measurement": "IC50", "setting": "[1]", "result": 4.5, "unit": "µM"}, {"measurement": "expression levels of iNOS proteins and genes", "setting": "[2]", "result": "decreased"}, {"measurement": "expression levels of COX-2 proteins and genes", "setting": "[3]", "result": "decreased"}, {"measurement": "expression levels of TNF-α gene", "setting": "[4]", "result": "decreased"}, {"measurement": "expression levels of IL1-β gene", "setting": "[5]", "result": "decreased"}, {"measurement": "expression levels of IL-6 gene", "setting": "[6]", "result": "decreased"}]}
